The text below walks through data of PubChem BioAssay (NCI).

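Where inhibition never reached the appropriate level, the endpoint shown equals the highest concentration tested. Otherwise, values were interpolated linearly from a five-concentration, 48-hour dose response in 96-well plates. At the TGI there is no net growth.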

Experiment in all cases: DTP human tumour cell line panel, 48 h
Experiment [1] deals with HOP-62 NSCLC.
In experiment [2] the test system is UACC-257 melanoma.
In experiment [3] the test system is T-47D breast.
The subject of experiment [4] is RXF 393 renal.
Experiment [5] relates to HCT-15 colon.
For experiment [6], the system named is HT29 colon.
Experiment [7] deals with TK-10 renal.
Experiment [8] has as its system OVCAR-3 ovarian.
Experiment [9] deals with SNB-19 CNS.
Experiment [10] concerns MOLT-4 leukemia.
Experiment [11] concerns COLO 205 colon.
The test system of experiment [12] is OVCAR-8 ovarian.

By TGI is commonly meant the concentration at which net growth stops. Higher therefore signals lower sensitivity of the cells. On to `CC1=C(C)SC(=C2Sc3c(n(C)c(=O)[nH]c3=O)S2)S1`, for which the TGI in experiment [1], in [2], in [3], in [4], in experiment [5] and in experiment [6] was > 100 µM each time. For the same compound, the TGI in experiment [7], in experiment [8], in experiment [9], in experiment [10], in [11] and in experiment [12] was > 100 µM in each case.

On to `CCOC(=O)Cc1ccc(Nc2nc3cc(C(F)(F)F)ccc3nc2C(=O)OCC)cc1`, for which the TGI was > 100 µM in [1]; > 100 µM in [2]; > 100 µM in experiment [3]; 51.5 µM in [4]; > 100 µM in experiment [5]; > 100 µM in experiment [6]. In addition, the TGI in [7], in experiment [8], in experiment [9], in experiment [10], in experiment [11] and in [12] was > 100 µM each time.

As for `O=C1CC2[C@@H](N3CCCC3)CCC(N1Cc1ccccc1)C2(O)O` (some centres undefined), the TGI in experiment [1], in experiment [2], in experiment [3], in experiment [4], in experiment [5] and in experiment [6] was > 100 µM throughout. Moreover, the TGI in experiment [7], in [8], in experiment [9], in [10], in experiment [11] and in experiment [12] was > 100 µM each time.

Take `Cn1c(=O)n(-c2c3ccccc3c(Cl)c3ccccc23)n(C(C)(C)C)c1=O`: the TGI in experiment [1], in [2], in experiment [3], in experiment [5], in experiment [6] and in [7] was > 100 µM throughout. The TGI in experiment [8], in experiment [9], in [10], in experiment [11] and in experiment [12] was > 100 µM throughout.

For `O=C(NNC(=S)Nc1ccccc1)C12CC3CC(CC(C3)C1)C2`, the TGI in [1], in [2], in experiment [3], in experiment [4], in experiment [5] and in experiment [6] was > 100 µM throughout. Also, the TGI in [7] was > 100 µM; in experiment [8], > 67.7 µM; in experiment [9], > 100 µM; in experiment [10], 60 µM; in experiment [11], > 73.2 µM; in experiment [12], > 100 µM.

`CC(=O)OCC1OC(n2c(C)c(N=Nc3ccc(C)cc3)c(C)c(C#N)c2=S)C(OC(C)=O)C(OC(C)=O)C1OC(C)=O` (centres undefined): the TGI in experiment [1], in experiment [2], in experiment [3], in experiment [4], in [6] and in [7] was > 100 µM in each case. The TGI in [8], in experiment [9], in experiment [10] and in [11] was > 100 µM in each case.

Take `Cc1ccc(SCC(OCn2cnc3c(N)ncnc32)[C@H](C)F)cc1` (some centres undefined): the TGI in experiment [1], in experiment [2], in experiment [3], in experiment [5], in experiment [6] and in [7] was > 100 µM in each case. The TGI in [8], in experiment [9], in experiment [10], in experiment [11] and in [12] was > 100 µM in each case.

Turning to `Cc1cc(S(=O)(=O)Nc2nc(N)n(-c3cnc4ccccc4n3)n2)c(S)cc1Cl`, the TGI in experiment [1], in experiment [2], in experiment [3], in experiment [4], in experiment [5] and in [6] was > 100 µM each time. In addition, the TGI in experiment [7], in experiment [8], in [9], in experiment [11] and in experiment [12] was > 100 µM in each case.

`COc1ccc(-c2oc3c(CC(=O)O)cccc3c(=O)c2OC)cc1`: the TGI in [1], in experiment [2], in [3], in experiment [4], in experiment [6] and in experiment [7] was > 100 µM in each case. Besides, the TGI in experiment [8], in experiment [10], in experiment [11] and in experiment [12] was > 100 µM throughout.

For the compound `COC(=O)CCc1ccc2c(c1)CCC2`, the TGI in [1], in experiment [2], in [3], in [5], in [6] and in [7] was > 100 µM throughout. The TGI in [8], in experiment [9], in experiment [10], in [11] and in experiment [12] was > 100 µM throughout.

As for `CCOC(=O)CSc1nc2ccccc2c(=O)n1N`, the TGI in experiment [2], in [3], in [4], in experiment [5], in experiment [6] and in [7] was > 100 µM in each case. The TGI in experiment [8], in experiment [9], in [10], in [11] and in experiment [12] was > 100 µM each time.

With `CC1(C)C(O)c2ccccc2OC1N1CCN(C2Oc3ccccc3C(O)C2(C)C)CC1` (centres undefined), the TGI in experiment [1], in experiment [2], in [3], in experiment [4], in experiment [5] and in experiment [6] was > 100 µM in each case. Moreover, the TGI in [8], in experiment [9], in [10], in experiment [11] and in experiment [12] was > 100 µM each time.
